Experimental data published in article PMC5019189 (European journal of pharmacology, 2015).
Where two headings read alike, the source gives them in different places.

Key:
HUVEC = assay: Cell viability; format: cell-based, human; conditions: 24 h, linear regression, mean of three experiments
[1] = test system: TNF-α-induced VCAM-1 protein expression; assay: ELISA of 24 h TNF-α-induced VCAM-1 protein expression on HUVEC; format: cell-based, human; conditions: for inhibition of the VCAM-1 protein expression elicited by TNF-α: 50 μM compound
[2] = test system: TNF-α-induced VCAM-1 mRNA expression; conditions: human aortic endothelial cells, Northern blot analysis; ref Dagia et al., 2004; cited from earlier work
[3] = test system: abnormal MHC gene expression in thyroid epithelial cells; conditions: ref Giuliani et al., 2010; cited from earlier work

| Compound | TC50, concentration of compound needed to reduce the MTS signal by 50% of the control value (HUVEC) [mM] | inhibition of the VCAM-1 protein expression elicited by TNF-α ([1]; 24 h TNF-α) | inhibition of VCAM-1 protein expression ([1]; 70 μM compound, 24 h TNF-α) | IC50 ([1]; Homo sapiens, 24 h, read-out: IC50, concentration of compound needed to inhibit 50% of the VCAM-1 expression) [mM] | effect on 24 h TNF-α-induced VCAM-1 mRNA expression [2] | suppression of abnormal MHC gene expression compared to MMI [3] | IC50 ([1]; read-out: IC50, concentration of compound needed to inhibit 50% of the VCAM-1 expression, 10 ng/ml TNF-α, 24 h, ELISA, linear regression, average of at least three experiments) [mM] |
| --- | --- | --- | --- | --- | --- | --- | --- |
| Cn1cc[nH]c1=S [MMI, 3-methyl-1, 3 imidazole-2 thione] | 2.45 | no inhibitory effect | little, if any, inhibition | 1.14 |  |  |  |
| Cn1c(-c2ccccc2)c[nH]c1=S [1a, 4-phenyl-3-methyl-1, 3 imidazole-2-thione] |  | over 40% |  |  | inhibits | 70–100 fold | 0.066 |
